Tests used:
5-HT1A(h) = target: T1, 5-HT1A(h) (Homo sapiens, UniProt P08908); assay: Radioligand binding, 5-HT1A (Eurofins CEREP); conditions: 1.0 × 10^−05 M; agonist radioligand; read-out: percent inhibition of the binding of a radioactively labeled ligand
T1 construct: Eurofins CEREP
T1 sequence (P08908 1-422): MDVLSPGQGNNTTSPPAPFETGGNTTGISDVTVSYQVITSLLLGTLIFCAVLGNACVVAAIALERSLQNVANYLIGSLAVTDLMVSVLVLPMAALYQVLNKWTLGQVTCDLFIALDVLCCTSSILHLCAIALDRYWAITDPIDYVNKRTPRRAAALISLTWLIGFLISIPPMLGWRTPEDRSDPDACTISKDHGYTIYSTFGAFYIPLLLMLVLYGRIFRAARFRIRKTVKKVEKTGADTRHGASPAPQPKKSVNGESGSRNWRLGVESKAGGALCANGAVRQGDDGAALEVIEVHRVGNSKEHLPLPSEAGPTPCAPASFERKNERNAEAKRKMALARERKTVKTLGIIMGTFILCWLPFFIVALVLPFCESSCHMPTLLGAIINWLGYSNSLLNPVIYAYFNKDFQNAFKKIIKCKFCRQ
Excerpt: (§1) Table A discloses mazindol and Met tested at […] and the compound binding calculated as a percent inhibition of the binding of a radioactively labeled ligand specific for each target (Eurofins CEREP, France).
An inhibition or stimulation of more than 50% is considered a significant effect of the test compounds. Fifty percent is a common cut-off for further investigation (i.e. determination of IC50 or EC50 values from concentration-response curves).
(§2) The results are expressed as a percent of control specific binding obtained in the presence of the test compounds:
(§3) [formula] and as a percent inhibition of control specific binding obtained in the presence of the test compounds: […]

5-HT7(h) = target: T2, 5-HT7(h) (Homo sapiens, UniProt P34969); assay: Radioligand binding, 5-HT7 (Eurofins CEREP); conditions: 1.0 × 10^−05 M; agonist radioligand; read-out: percent inhibition of the binding of a radioactively labeled ligand
T2 construct: Eurofins CEREP
Excerpt: as §1
(§4) An inhibition or stimulation of more than 50% is considered a significant effect of the test compounds. Fifty percent is a common cut-off for further investigation (i.e. determination of IC50 or EC50 values from concentration-response curves). Tables B and C display the binding profiles for Mazindol and Met.
as §2, §3

M1(h) = target: T3, M1(h) (Homo sapiens, UniProt P11229); assay: Radioligand binding, M1 (Eurofins CEREP); conditions: 1.0 × 10^−05 M; antagonist radioligand; read-out: percent inhibition of the binding of a radioactively labeled ligand
T3 construct: Eurofins CEREP
T3 sequence (P11229 1-460): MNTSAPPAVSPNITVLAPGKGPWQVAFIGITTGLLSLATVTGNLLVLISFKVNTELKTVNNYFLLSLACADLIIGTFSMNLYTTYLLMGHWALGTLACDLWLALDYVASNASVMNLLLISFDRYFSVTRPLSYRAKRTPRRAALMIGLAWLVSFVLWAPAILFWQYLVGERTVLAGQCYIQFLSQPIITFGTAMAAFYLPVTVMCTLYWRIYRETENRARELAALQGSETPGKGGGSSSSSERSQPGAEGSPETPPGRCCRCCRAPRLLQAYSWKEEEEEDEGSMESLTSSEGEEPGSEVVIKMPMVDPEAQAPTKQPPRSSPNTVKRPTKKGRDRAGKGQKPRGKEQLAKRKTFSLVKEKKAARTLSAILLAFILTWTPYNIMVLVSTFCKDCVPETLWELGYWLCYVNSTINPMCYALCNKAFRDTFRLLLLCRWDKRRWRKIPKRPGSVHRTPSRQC
Excerpt: as §1, §4, §2, §3

k (KOP) = target: T4, k (KOP) (Rattus norvegicus, UniProt P34975); assay: Radioligand binding, κ opioid receptor (Eurofins CEREP)
T4 construct: Eurofins CEREP
Excerpt: as §1, §4, §2, §3

C57BL/6J mice = assay: Conditioned place preference induced by the drug itself; type: in vivo
Excerpt: Conditioned place preference (CPP) is a widely used procedure for studying the potential addictive effect of drugs. CPP is based upon the tendency of rodents to approach a stimulus that has previously been paired with an incentive state induced by a drug. A drug that induces a CPP may be suspected to present reinforcing effects that could lead to addiction. Numerous addictive drugs, such as opiate agonists or stimulants induce a CPP and a behavioral sensitization.
The effect of mazindol on place preference was examined in C57BL/6J mice using a method similar to the one used by Schlussman et al. (9).
The second experiment consisted in determining the optimal dose of heroin which induces the most significant CPP. For this purpose, the CPP induced by heroin at 1.25, 2.5 and 5 mg/kg was examined.
Following the habituation session (on day 1), animals (N=72) were pseudo-randomly assigned to two groups, a Control group (N=12) and a Heroin group (N=60), in a way that there was no significant difference between the two groups for the total distance travelled in the apparatus and for the percentage of time spent and the percentage distance travelled in the grey compartment and in the striped compartment.
Animals received the following treatments immediately before drug sessions: • Control group: vehicle • Heroin group: heroin (1.25 mg/kg)
Following the habituation session (on day 1), animals (N=72) were pseudo-randomly assigned to three groups, a Control group (N=12), a Heroin group (N=48) and a Mazindol group (N=12), in a way that there was no significant difference between the three groups for the total distance travelled in the apparatus and for the percentage of time spent and the percentage distance travelled in the grey compartment and in the striped compartment.
Animals received the following treatments before drug sessions: • Control group: vehicle, i.p. immediately before session. • Heroin group: heroin (1.25 mg/kg), i.p. immediately before session. • MAZ 2 group: mazindol (2 mg/kg), i.p. 60 min before session.
Animals received the following treatments before preference session: • Control group: vehicle of mazindol, i.p. 60 min before testing. • Hero group: vehicle of mazindol, i.p. 60 min before testing. • Hero-Mz 1 group: mazindol (1 mg/kg), i.p. 60 min before testing. • Hero-Mz 2 group: mazindol (2 mg/kg), i.p. 60 min before testing. • Hero-A 1 group: D-amphetamine (1 mg/kg), i.p. 30 min before testing. • MAZ 2 group: vehicle of mazindol, i.p. 60 min before testing.

[1] = tested on: cocaine abuse and dependence; conditions: studies (7, 8); vs. placebo; cited from earlier work
[2] = animal toxicology studies; cited from earlier work
[3] = Nakashima et al., 2004; cited from earlier work
[4] = Pharmacokinetics of mazindol after oral administration; conditions: immediate release formulation
[5] = MAZ 2: mazindol 2 mg/kg i.p. 60 min before drug sessions, vehicle before preference session, day 12, mean

T4 sequence (P34975 whole entry): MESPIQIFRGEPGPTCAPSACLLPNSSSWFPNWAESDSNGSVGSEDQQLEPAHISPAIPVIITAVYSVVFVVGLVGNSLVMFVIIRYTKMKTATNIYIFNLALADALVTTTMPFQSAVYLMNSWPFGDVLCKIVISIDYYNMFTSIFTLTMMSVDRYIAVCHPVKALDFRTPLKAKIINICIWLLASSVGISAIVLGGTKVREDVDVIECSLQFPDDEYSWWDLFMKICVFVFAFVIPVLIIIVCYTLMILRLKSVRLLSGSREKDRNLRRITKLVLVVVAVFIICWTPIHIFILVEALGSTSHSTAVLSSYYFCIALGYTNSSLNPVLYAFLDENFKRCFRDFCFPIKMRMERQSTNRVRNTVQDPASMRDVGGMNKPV
T2 sequence (P34969 whole entry): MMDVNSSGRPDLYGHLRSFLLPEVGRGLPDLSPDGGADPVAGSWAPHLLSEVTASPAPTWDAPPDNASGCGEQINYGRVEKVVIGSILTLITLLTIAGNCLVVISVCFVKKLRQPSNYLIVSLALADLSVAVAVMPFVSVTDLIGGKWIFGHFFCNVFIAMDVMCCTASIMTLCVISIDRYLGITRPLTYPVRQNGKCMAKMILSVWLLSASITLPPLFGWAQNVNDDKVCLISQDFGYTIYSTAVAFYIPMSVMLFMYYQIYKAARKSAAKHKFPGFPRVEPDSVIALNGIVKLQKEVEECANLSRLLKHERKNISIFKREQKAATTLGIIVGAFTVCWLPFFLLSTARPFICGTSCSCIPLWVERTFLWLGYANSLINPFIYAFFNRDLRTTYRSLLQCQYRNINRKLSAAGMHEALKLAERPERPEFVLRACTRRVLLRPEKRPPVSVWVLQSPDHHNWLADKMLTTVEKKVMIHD

**Q.** Which inhibition at 10 µM (5-HT1A(h)) does the source give for `OC1(c2ccc(Cl)cc2)c2ccccc2C2=NCCN21` (stereo not shown) [Mazindol, 5-(4-chlorophenyl)-2,5-dihydro-3 H-imadazo[2,1-a]isoindol-5-ol] here?
**A.** Its inhibition at 10 µM is 89.5%.

**Q.** What about the inhibition at 10 µM (5-HT7(h)) of the same compound?
**A.** The inhibition at 10 µM was 52.9%.

**Q.** What about the inhibition at 10 µM (M1(h)) of the same compound?
**A.** The inhibition at 10 µM was 52.1%.

**Q.** And the “affinity for κ-opioid receptors” value (k (KOP))?
**A.** The value was “modest affinity”.

**Q.** And the “Distance travelled in the drug-paired compartment” value (C57BL/6J mice; [5])?
**A.** Its value is 9013.0 cm.

**Q.** What about the “Distance travelled in the two compartments (Drug + Vehicle)” value (C57BL/6J mice; [5]) of the same compound?
**A.** The value was 14858.2 cm.

**Q.** And the “Distance travelled in the vehicle-paired compartment” value (C57BL/6J mice; [5])?
**A.** Its value is 5845.2 cm.

**Q.** What about the “Distance travelled, drug-paired minus vehicle-paired compartment” value (C57BL/6J mice; [5]) of the same compound?
**A.** Its value is 3167.8 cm.

**Q.** And the “Time spent in the drug-paired compartment” value (C57BL/6J mice; [5])?
**A.** The value was 1077.3 s.

**Q.** And the “Time spent in the vehicle-paired compartment” value (C57BL/6J mice; [5])?
**A.** The value was 722.7 s.

**Q.** And the “Time spent, drug-paired minus vehicle-paired compartment” value (C57BL/6J mice; [5])?
**A.** The value was 354.6 s.

**Q.** What about the “place preference induced by the drug” value (C57BL/6J mice; mazindol 2 mg/kg i.p. before drug sessions) of the same compound?
**A.** Its value is “induced a place preference”.

**Q.** And the “efficacy in treating cocaine abuse and dependence” value [1]?
**A.** Its value is “ineffective”.

**Q.** What about the carcinogenic effect [2] of the same compound?
**A.** The carcinogenic effect was “no carcinogenic effect”.

**Q.** What about the mutagenic effect [2] of the same compound?
**A.** Its mutagenic effect is “no mutagenic effect”.

**Q.** What about the toxic potential [2] of the same compound?
**A.** The toxic potential was “very low”.

**Q.** What about the “toxicology effect in reproduction” value [2] of the same compound?
**A.** Its value is “no toxicology effect in reproduction”.

**Q.** What about the “stability (hydrolysis to Met)” value [3] of the same compound?
**A.** The value was “hydrolysis of mazindol at moderate temperatures in neutral and alkaline aqueous solutions”.

**Q.** What about the “time to steady-state concentrations” value [4] of the same compound?
**A.** Its value is 30 to 55 h.
